Test results from patent US12673947B2 (Cytosinlab Therapeutics Co., Ltd., priority 2020, dated 2026).

Legend:
MV4;11 cells = experiment: MV4;11 in vitro inhibition of proliferation assay (CellTiter-Glo, 72 hours); format: cell-based; conditions: Homo sapiens, MV4-11, 72 h, IC50 class, read-out: Inhibitory activity of cell proliferation MV4;11
Outline: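 IC50 came from four-parameter fitting of inhibition rates, based on CellTiter-Glo luminescence after 72 hours at 37° C. Each well held 2000 MV4;11 cells grown in IMDM with 10% serum. Compounds formed a nine-point, threefold DMSO series starting at 10 uM, tested in triplicate at 0.3% final DMSO.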

FLT3 = molecular target: T1, FLT3 (Homo sapiens, UniProt P36888); experiment: FLT3 kinase in vitro inhibitory activity experiment (Caliper mobility shift, conversion rate); format: biochemical; conditions: IC50 class, read-out: Enzyme activity FLT3
T1 construct: purchased Carna 08-145
T1 sequence (P36888 27-993): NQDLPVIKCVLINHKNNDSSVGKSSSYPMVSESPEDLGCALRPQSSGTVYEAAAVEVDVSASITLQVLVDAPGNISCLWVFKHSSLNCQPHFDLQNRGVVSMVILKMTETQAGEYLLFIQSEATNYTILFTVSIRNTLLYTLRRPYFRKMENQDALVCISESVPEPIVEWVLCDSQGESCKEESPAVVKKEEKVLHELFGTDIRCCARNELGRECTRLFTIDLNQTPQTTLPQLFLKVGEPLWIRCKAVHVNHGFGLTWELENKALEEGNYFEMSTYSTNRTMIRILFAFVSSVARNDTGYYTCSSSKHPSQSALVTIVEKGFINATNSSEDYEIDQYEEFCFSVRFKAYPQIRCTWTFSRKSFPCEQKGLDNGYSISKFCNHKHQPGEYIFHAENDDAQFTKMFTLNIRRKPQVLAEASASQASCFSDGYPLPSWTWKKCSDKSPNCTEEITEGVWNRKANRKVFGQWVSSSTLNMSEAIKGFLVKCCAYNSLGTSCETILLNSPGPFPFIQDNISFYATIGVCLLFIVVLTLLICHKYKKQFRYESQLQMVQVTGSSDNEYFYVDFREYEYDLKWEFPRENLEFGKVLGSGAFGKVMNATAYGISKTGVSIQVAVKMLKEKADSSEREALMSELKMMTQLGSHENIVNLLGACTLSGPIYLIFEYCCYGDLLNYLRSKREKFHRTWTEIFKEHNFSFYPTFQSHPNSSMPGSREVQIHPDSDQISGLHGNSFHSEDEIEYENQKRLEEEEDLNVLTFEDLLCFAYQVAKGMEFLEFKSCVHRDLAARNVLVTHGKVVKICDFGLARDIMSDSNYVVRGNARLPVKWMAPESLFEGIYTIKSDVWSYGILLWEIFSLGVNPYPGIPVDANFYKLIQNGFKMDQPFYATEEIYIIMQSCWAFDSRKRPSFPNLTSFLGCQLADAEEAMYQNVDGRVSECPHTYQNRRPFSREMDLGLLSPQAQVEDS
Outline: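 Tested in single wells as ten 3-fold dilutions of a 1 μM initial stock. Compound and FLT3 stood 10 min at room temperature; ATP with Kinase substrate 2 was then added for 30 min at room temperature and the reaction stopped. Conversion was measured by Caliper mobility shift, and inhibition was normalised to control-well conversion.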

IC50 (MV4;11 cells) | IC50 (FLT3) | Structure (SMILES)
≤ 10 nM | ≤ 10 nM | CCc1nc2c(N)ncc(-c3cnn(-c4ccc(F)cc4F)c3)c2nc1N[C@@H]1CC[C@H](O)C1 [Compound 178]
≤ 10 nM | ≤ 10 nM | CCc1nc2c(N)ncc(-c3cnn(-c4ccncn4)c3)c2nc1N[C@@H]1CC[C@H](O)C1 [Compound 179]
≤ 10 nM | ≤ 10 nM | CCc1nc2c(N)ncc(-c3cnn(-c4ccnc(C)n4)c3)c2nc1N[C@@H]1CC[C@H](O)C1 [Compound 180, (1S,3R)-3-((5-amino-3-ethyl-8-(1-(2-methylpyrimidin-4-yl)-1H-pyrazol-4-yl)pyridino[3,4-b]pyrazin-2-yl)amino)cyclopentan-1-ol]
≤ 10 nM | ≤ 10 nM | CCc1nc2c(N)ncc(-c3cnn(C4CCN(CC(C)(C)O)CC4)c3)c2nc1N[C@@H]1CC[C@H](O)C1 [Compound 181]
≤ 10 nM | ≤ 10 nM | CCc1nc2c(N)ncc(-c3cnn(C4CCN(CC(C)C)CC4)c3)c2nc1N[C@@H]1CC[C@H](O)C1 [Compound 182]
≤ 10 nM | ≤ 10 nM | CCc1nc2c(N)ncc(-c3cnn(C4CCN(C(C)CC)CC4)c3)c2nc1N[C@@H]1CC[C@H](O)C1 (some centres unmarked) [Compound 183]
≤ 10 nM | ≤ 10 nM | CCc1nc2c(N)ncc(-c3cnn(C4CCN(C(CC)CC)CC4)c3)c2nc1N[C@@H]1CC[C@H](O)C1 [Compound 184]
≤ 10 nM | ≤ 10 nM | CCc1nc2c(N)ncc(-c3cnn(C4CCN(C(=O)C(C)C)CC4)c3)c2nc1N[C@@H]1CC[C@H](O)C1 [Compound 185, 1-(4-(4-(5-amino-3-ethyl-2-(((1R,3S)-3-hydroxycyclopentyl)amino)pyridino[3,4-b]pyrazin-8-yl)-1H-pyrazol-1-yl)piperidin-1-yl)-2-methylpropyl-1-one]
≤ 10 nM | ≤ 10 nM | CCc1nc2c(N)ncc(-c3cnn(C4CCN(S(C)(=O)=O)CC4)c3)c2nc1N[C@@H]1CC[C@H](O)C1 [Compound 186]
≤ 10 nM | ≤ 10 nM | CCc1nc2c(N)ncc(-c3cnn(C4CCN(S(=O)(=O)C(C)C)CC4)c3)c2nc1N[C@@H]1CC[C@H](O)C1 [Compound 187, (1S,3R)-3-((5-amino-3-ethyl-8-(1-(1-(isopropylsulfonyl)piperidin-4-yl)-1H-pyrazol-4-yl)pyridino[3,4b]pyrazin-2-yl)amino)cyclopentan-1-ol]
≤ 10 nM | ≤ 10 nM | CCc1nc2c(N)ncc(-c3cnn(C4CCN(S(=O)(=O)CC(C)C)CC4)c3)c2nc1N[C@@H]1CC[C@H](O)C1 [Compound 188]
≤ 10 nM | ≤ 10 nM | CCc1nc2c(N)ncc(-c3cnn(C4CCN(C(=O)NC(C)C)CC4)c3)c2nc1N[C@@H]1CC[C@H](O)C1 [Compound 189]
≤ 10 nM | ≤ 10 nM | CCc1nc2c(N)ncc(-c3cnn(C4CCN(C(=O)OC(C)(C)C)CC4)c3)c2nc1N[C@@H]1CC[C@H](O)C1 [Compound 190]
≤ 10 nM | ≤ 10 nM | CCc1nc2c(N)ncc(-c3cnn(C4CCCCC4)c3)c2nc1N[C@@H]1CC[C@H](O)C1 [Compound 192]
≤ 10 nM | ≤ 10 nM | CCc1nc2c(N)ncc(-c3cnn(C4CCC(F)(F)CC4)c3)c2nc1N[C@@H]1CC[C@H](O)C1 [Compound 193]
≤ 10 nM | ≤ 10 nM | CCc1nc2c(N)ncc(-c3cnn(C)c3)c2nc1N[C@@H]1CC[C@H](O)C1 [Compound 194]
10 to 100 nM | 10 to 100 nM | CCc1nc2c(N)ncc(-c3cnn(C(CC)CC)c3)c2nc1N[C@@H]1CC[C@H](O)C1 [Compound 195]
10 to 100 nM | ≤ 10 nM | CCc1nc2c(N)ncc(-c3cnn(CCOC)c3)c2nc1N[C@@H]1CC[C@H](O)C1 [Compound 196]
10 to 100 nM | ≤ 10 nM | CCc1nc2c(N)ncc(-c3cnn(CC(C)(C)O)c3)c2nc1N[C@@H]1CC[C@H](O)C1 [Compound 197]
10 to 100 nM | ≤ 10 nM | CCc1nc2c(N)ncc(-c3cnn(CCO)c3)c2nc1N[C@@H]1CC[C@H](O)C1 [Compound 198]
≤ 10 nM | ≤ 10 nM | CCc1nc2c(N)ncc(-c3cnn(C4COC4)c3)c2nc1N[C@@H]1CC[C@H](O)C1 [Compound 199]
≤ 10 nM | ≤ 10 nM | CCc1nc2c(N)ncc(-c3cnn(CC4COC4)c3)c2nc1N[C@@H]1CC[C@H](O)C1 [Compound 200]

IC50 (MV4;11 cells) | IC50 (FLT3) | Structure (SMILES)
≤ 10 nM | ≤ 10 nM | CCc1nc2c(N)ncc(-c3cnn(C(C)C)c3)c2nc1N[C@@H]1CC[C@H](O)C1 [Compound 201]
≤ 10 nM | ≤ 10 nM | CCc1nc2c(N)ncc(-c3cnn(C4CC4)c3)c2nc1N[C@@H]1CC[C@H](O)C1 [Compound 202]
10 to 100 nM | ≤ 10 nM | CCc1nc2c(N)ncc(-c3cn[nH]c3)c2nc1N[C@@H]1CC[C@H](O)C1 [Compound 203]
≤ 10 nM | ≤ 10 nM | CCc1nc2c(N)ncc(-c3cnn(CC4CCN(C)CC4)c3)c2nc1N[C@@H]1CC[C@H](O)C1 [Compound 204]
≤ 10 nM | ≤ 10 nM | CCOCC1(COCC)CCC(n2cc(-c3cnc(N)c4nc(CC)c(N[C@@H]5CC[C@H](O)C5)nc34)cn2)CC1 [Compound 205]
10 to 100 nM | ≤ 10 nM | CCc1nc2c(N)ncc(-c3cnn(C4CCNCC4)c3)c2nc1NC1CCC(O)C1 (centres unmarked) [Compound 206]
≤ 10 nM | ≤ 10 nM | CCc1nc2c(N)ncc(-c3cnn(C4CCN(CCO)CC4)c3)c2nc1N[C@@H]1CC[C@H](O)C1 [Compound 207, (1S,3R)-3-((5-amino-3-ethyl-8-(1-(1-(2-hydroxyethyl)piperidin-4-yl)-1H-pyrazol-4-yl)pyridino[3,4-b]pyrazin-2-yl)amino)cyclopentan-1-ol]
≤ 10 nM | ≤ 10 nM | CCc1nc2c(N)ncc(-c3cnn(C4CCN(C5CCOCC5)CC4)c3)c2nc1N[C@@H]1CC[C@H](O)C1 [Compound 208]
≤ 10 nM | ≤ 10 nM | CCc1nc2c(N)ncc(-c3cnn(C4CCN(C5COC5)CC4)c3)c2nc1N[C@@H]1CC[C@H](O)C1 [Compound 209]
≤ 10 nM | ≤ 10 nM | CCc1nc2c(N)ncc(-c3cnn(C4CCN(C5CN(C)C5)CC4)c3)c2nc1N[C@@H]1CC[C@H](O)C1 [Compound 210]
≤ 10 nM | ≤ 10 nM | CCc1nc2c(N)ncc(-c3cnn(C4CCN(C5CC5)CC4)c3)c2nc1N[C@@H]1CC[C@H](O)C1 [Compound 211]
≤ 10 nM | ≤ 10 nM | CCc1nc2c(N)ncc(-c3cnn(C4CCN(C5CCC5)CC4)c3)c2nc1N[C@@H]1CC[C@H](O)C1 [Compound 212]
≤ 10 nM | ≤ 10 nM | CCc1nc2c(N)ncc(-c3cnn(C4CCN(C5CCCC5)CC4)c3)c2nc1N[C@@H]1CC[C@H](O)C1 [Compound 213]
≤ 10 nM | ≤ 10 nM | CCc1nc2c(N)ncc(-c3cnn(C4CCN(C5CCCCC5)CC4)c3)c2nc1N[C@@H]1CC[C@H](O)C1 [Compound 214]
≤ 10 nM | ≤ 10 nM | CCc1nc2c(N)ncc(-c3cnn(C4CCN(C)CC4)c3)c2nc1N[C@@H]1CC[C@H](O)C1 [Compound 215]
≤ 10 nM | ≤ 10 nM | CCc1nc2c(N)ncc(-c3cnn(C4CCN(CC)CC4)c3)c2nc1N[C@@H]1CC[C@H](O)C1 [Compound 216]
≤ 10 nM | ≤ 10 nM | CCc1nc2c(N)ncc(-c3cnn(C4CCN(C(C)C)CC4)c3)c2nc1N[C@@H]1CC[C@H](O)C1 [Compound 217]
≤ 10 nM | ≤ 10 nM | CCc1nc2c(N)ncc(-c3cnn(C4CCN(CC(F)F)CC4)c3)c2nc1N[C@@H]1CC[C@H](O)C1 [Compound 218]
≤ 10 nM | ≤ 10 nM | CCc1nc2c(N)ncc(-c3cnn(C4CCN(CC(F)(F)F)CC4)c3)c2nc1N[C@@H]1CC[C@H](O)C1 [Compound 219]
≤ 10 nM | ≤ 10 nM | [2H]C([2H])([2H])N1CCC(n2cc(-c3cnc(N)c4nc(CC)c(N[C@@H]5CC[C@H](O)C5)nc34)cn2)CC1 [Compound 220]
≤ 10 nM | ≤ 10 nM | [2H]C([2H])([2H])C(N1CCC(n2cc(-c3cnc(N)c4nc(CC)c(N[C@@H]5CC[C@H](O)C5)nc34)cn2)CC1)C([2H])([2H])[2H] [Compound 221]
